Reference: patent US20210213104A1, “GLUCAGON AND GLP-1 CO-AGONISTS FOR THE TREATMENT OF CHRONIC KIDNEY DISEASE AND DIABETIC KIDNEY DISEASE IN TYPE 2 DIABETES” (MEDIMMUNE LIMITED, priority 2020, published 2021)

Tested on: subjects with T2DM and renal impairment
Assay: Phase 2a: continuous glucose monitoring (CGM)
Assay type: in vivo, human
Conditions: ITT; for Average CGM Glucose Over 7-Day Periods, Difference in LS Mean Change (vs Placebo) / Average CGM Glucose Over 7-Day Periods, LS Mean Change / Percentage of time CGM Glucose in Clinically Significant Hypoglycemia (<54 mg/dL), Difference in LS Mean Change (vs Placebo) / Percentage of time CGM Glucose in Clinically Significant Hypoglycemia (<54 mg/dL), LS Mean Change / Percentage of time CGM Glucose in Hyperglycemia (>180 mg/dL), Difference in LS Mean Change (vs Placebo) / Percentage of time CGM Glucose in Hyperglycemia (>180 mg/dL), LS Mean Change / Percentage of time CGM Glucose in Hypoglycemia (<70 mg/dl), Difference in LS Mean Change (vs Placebo) / Percentage of time CGM Glucose in Hypoglycemia (<70 mg/dl), LS Mean Change / Average CGM Glucose Over 7-Day Periods, Change from Baseline to End of Dosing Period, Mean / Average CGM Glucose Over 7-Day Periods, Change from Baseline to End of Dosing Period, Median / Percentage of time CGM Glucose in Hyperglycemia (>180 mg/dL), Change from Baseline to End of Dosing Period, Mean / Percentage of time CGM Glucose in Hyperglycemia (>180 mg/dL), Change from Baseline to End of Dosing Period, Median: baseline Days −8 to −2; for Average CGM Glucose Over 7-Day Periods, Difference in LS Mean Change (vs Placebo) / Average CGM Glucose Over 7-Day Periods, LS Mean Change / Percentage of time CGM Glucose in Clinically Significant Hypoglycemia (<54 mg/dL), Difference in LS Mean Change (vs Placebo) / Percentage of time CGM Glucose in Clinically Significant Hypoglycemia (<54 mg/dL), LS Mean Change / Percentage of time CGM Glucose in Hyperglycemia (>180 mg/dL), Difference in LS Mean Change (vs Placebo) / Percentage of time CGM Glucose in Hyperglycemia (>180 mg/dL), LS Mean Change / Percentage of time CGM Glucose in Hypoglycemia (<70 mg/dl), Difference in LS Mean Change (vs Placebo) / Percentage of time CGM Glucose in Hypoglycemia (<70 mg/dl), LS Mean Change / Time in target range, LS Mean Change: ANCOVA; for Time in target range, LS Mean Change: 300 μg Dose (Days 26 to 32)
Method: Cotadutide was titrated from 50 μg up to 300 μg and administered once daily by subcutaneous (SC) injection over 32 days.
Cotadutide was administered at 50 μg once daily for 4 days, followed by 100 μg daily for 7 days, 200 μg daily for 7 days, and 300 μg daily for 14 days (n=20). Placebo was administered one daily for 32 days (n=20). Cotadutide and placebo were administered in the morning. Dosing commenced following predose baseline vital signs, blood tests (including HbA1c), an electrocardiogram (ECG), body weight measurement, and bioimpedance spectroscopy (BIS). Subjects then returned for daily dosing or remained overnight locally until Day 5, and thereafter, had visits at weekly intervals until a maintenance dose of 300 μg was established. Thus, Cotadutide or placebo was administered at the study site by study personal for the first four doses and on site on Days 5, 12, 19, and 32. At all other times, subjects preformed dosing at home.
A Freestyle Libre® Pro CGM device was used to measure interstitial glucose levels. […] Data generated by CGM was used at visits to adjust insulin doses and other treatments.
The CGM sensor, which is a small plastic circular device of 35 mm diameter and 5 mm depth, was applied to the back of the upper arm. Subjects wore the CGM sensor continuously up until the time of a sensor change, which was to occur within 14 days, and they were advised that they could bathe and shower, and swim in up to 3 m depth for up to 30 minutes while wearing the CGM sensor. When the CGM sensor was removed, a new CGM sensor could be reapplied, ideally close to the original site, but with the subject's site preference taken into account. CGM sensors were single-use only.
If a subject was unable to tolerate wearing the CGM sensor for the entire duration of the study, the sensor was removed; but the subject was to remain in the study with or without continued CGM and could instead be instructed to monitor capillary plasma glucose measurements four times per day (before meals and before bedtime) and record these levels in the diary provided.
Subjects underwent continuous glucose monitoring (CGM) starting from Day −14 to Day 40 (±5 days), with sensor changes within 14-day intervals. CGM readings were used to analyze change in average CGM glucose and glucose AUC7 d, coefficient of variation as a marker of glycemic variability, and time spent in target glucose range and hypoglycemia, to enable comparison across different dose levels.

CCCCCCCCCCCCCCCC(=O)N[C@@H](CCC(=O)NCCCC[C@H](NC(=O)[C@H](CC(=O)O)NC(=O)[C@H](CO)NC(=O)[C@@H](NC(=O)[C@H](Cc1ccccc1)NC(=O)[C@@H](NC(=O)CNC(=O)[C@H](CCC(N)=O)NC(=O)[C@H](CO)NC(=O)[C@@H](N)Cc1c[nH]cn1)[C@@H](C)O)[C@@H](C)O)C(=O)N[C@@H](CO)C(=O)N[C@@H](CCC(=O)O)C(=O)N[C@@H](Cc1ccc(O)cc1)C(=O)N[C@@H](CC(C)C)C(=O)N[C@@H](CC(=O)O)C(=O)N[C@@H](CO)C(=O)N[C@@H](CCC(=O)O)C(=O)N[C@@H](CCCNC(=N)N)C(=O)N[C@@H](C)C(=O)N[C@@H](CCCNC(=N)N)C(=O)N[C@@H](CC(=O)O)C(=O)N[C@@H](Cc1ccccc1)C(=O)N[C@H](C(=O)N[C@@H](C)C(=O)N[C@@H](Cc1c[nH]c2ccccc12)C(=O)N[C@@H](CC(C)C)C(=O)N[C@@H](CCC(=O)O)C(=O)N[C@@H](C)C(=O)NCC(=O)NCC(=O)O)C(C)C)C(=O)O [Cotadutide]
Average CGM Glucose Over 7-Day Periods, End of Dosing Period, Mean (300 μg (Days 19 to 25)): 124.894 mg/dL | Average CGM Glucose Over 7-Day Periods, End of Dosing Period, Median (300 μg (Days 19 to 25)): 123.277 mg/dL | Percentage of time CGM Glucose in Hyperglycemia (>180 mg/dL), End of Dosing Period, Mean (300 μg (Days 19 to 25)): 10.65% | Percentage of time CGM Glucose in Hyperglycemia (>180 mg/dL), End of Dosing Period, Median (300 μg (Days 19 to 25)): 5.81% | Average CGM Glucose Over 7-Day Periods, Difference in LS Mean Change (vs Placebo) (300 μg (Days 19 to 25)): -48.97 mg/dL | Average CGM Glucose Over 7-Day Periods, LS Mean Change (300 μg (Days 19 to 25)): -38.75 mg/dL | Percentage of time CGM Glucose in Clinically Significant Hypoglycemia (<54 mg/dL), Difference in LS Mean Change (vs Placebo) (300 μg (Days 19 to 25)): 4.57% | Percentage of time CGM Glucose in Clinically Significant Hypoglycemia (<54 mg/dL), LS Mean Change (300 μg (Days 19 to 25)): 3.58% | Percentage of time CGM Glucose in Hyperglycemia (>180 mg/dL), Difference in LS Mean Change (vs Placebo) (300 μg (Days 19 to 25)): −23.47% | Percentage of time CGM Glucose in Hyperglycemia (>180 mg/dL), LS Mean Change (300 μg (Days 19 to 25)): −23.47% | Percentage of time CGM Glucose in Hypoglycemia (<70 mg/dl), Difference in LS Mean Change (vs Placebo) (300 μg (Days 19 to 25)): 4.25% | Percentage of time CGM Glucose in Hypoglycemia (<70 mg/dl), LS Mean Change (300 μg (Days 19 to 25)): 3.39% | Average CGM Glucose Over 7-Day Periods, Change from Baseline to End of Dosing Period, Mean (300 μg (Days 19 to 25)): -38.623 mg/dL | Average CGM Glucose Over 7-Day Periods, Change from Baseline to End of Dosing Period, Median (300 μg (Days 19 to 25)): -35.498 mg/dL | Percentage of time CGM Glucose in Hyperglycemia (>180 mg/dL), Change from Baseline to End of Dosing Period, Mean (300 μg (Days 19 to 25)): −23.50% | Percentage of time CGM Glucose in Hyperglycemia (>180 mg/dL), Change from Baseline to End of Dosing Period, Median (300 μg (Days 19 to 25)): −19.64% | Average CGM Glucose Over 7-Day Periods, End of Dosing Period, Mean (300 μg (Days 26 to 32)): 125.382 mg/dL | Average CGM Glucose Over 7-Day Periods, End of Dosing Period, Median (300 μg (Days 26 to 32)): 121.594 mg/dL | Percentage of time CGM Glucose in Hyperglycemia (>180 mg/dL), End of Dosing Period, Mean (300 μg (Days 26 to 32)): 10.00% | Percentage of time CGM Glucose in Hyperglycemia (>180 mg/dL), End of Dosing Period, Median (300 μg (Days 26 to 32)): 4.38% | Average CGM Glucose Over 7-Day Periods, Difference in LS Mean Change (vs Placebo) (300 μg (Days 26 to 32)): -47.89 mg/dL | Average CGM Glucose Over 7-Day Periods, LS Mean Change (300 μg (Days 26 to 32)): -41.37 mg/dL | Percentage of time CGM Glucose in Clinically Significant Hypoglycemia (<54 mg/dL), Difference in LS Mean Change (vs Placebo) (300 μg (Days 26 to 32)): 1.58% | Percentage of time CGM Glucose in Clinically Significant Hypoglycemia (<54 mg/dL), LS Mean Change (300 μg (Days 26 to 32)): 0.13% | Percentage of time CGM Glucose in Hyperglycemia (>180 mg/dL), Difference in LS Mean Change (vs Placebo) (300 μg (Days 26 to 32)): −18.94% | Percentage of time CGM Glucose in Hyperglycemia (>180 mg/dL), LS Mean Change (300 μg (Days 26 to 32)): −25.15% | Percentage of time CGM Glucose in Hypoglycemia (<70 mg/dl), Difference in LS Mean Change (vs Placebo) (300 μg (Days 26 to 32)): 4.91% | Percentage of time CGM Glucose in Hypoglycemia (<70 mg/dl), LS Mean Change (300 μg (Days 26 to 32)): 3.09% | Average CGM Glucose Over 7-Day Periods, Change from Baseline to End of Dosing Period, Mean (300 μg (Days 26 to 32)): -41.401 mg/dL | Average CGM Glucose Over 7-Day Periods, Change from Baseline to End of Dosing Period, Median (300 μg (Days 26 to 32)): -51.123 mg/dL | Percentage of time CGM Glucose in Hyperglycemia (>180 mg/dL), Change from Baseline to End of Dosing Period, Mean (300 μg (Days 26 to 32)): −25.49% | Percentage of time CGM Glucose in Hyperglycemia (>180 mg/dL), Change from Baseline to End of Dosing Period, Median (300 μg (Days 26 to 32)): −23.12% | Time in target range, LS Mean Change (Insulin Dose < 20 U/day): 17.13% | Time in target range, LS Mean Change (Insulin Dose ≥ 20 U/day): 10.40% | Time in target range, LS Mean Change (Total): 14.79%
